Data as given in PubChem BioAssay AID852 (PCMD, 2007).

Biological target: Coagulation factor XII (Homo sapiens) (UniProt P00748)
Experiment: human FXIIa protease inhibitors, dose response, biochemical, confirmation of 1536-well hits (AID 852)
Settings: purified human plasma FXIIa, fluorogenic AMC substrate, 384-well, 2 h

Coagulation factor XII (Homo sapiens), sequence (P00748 20-372 limits assumed): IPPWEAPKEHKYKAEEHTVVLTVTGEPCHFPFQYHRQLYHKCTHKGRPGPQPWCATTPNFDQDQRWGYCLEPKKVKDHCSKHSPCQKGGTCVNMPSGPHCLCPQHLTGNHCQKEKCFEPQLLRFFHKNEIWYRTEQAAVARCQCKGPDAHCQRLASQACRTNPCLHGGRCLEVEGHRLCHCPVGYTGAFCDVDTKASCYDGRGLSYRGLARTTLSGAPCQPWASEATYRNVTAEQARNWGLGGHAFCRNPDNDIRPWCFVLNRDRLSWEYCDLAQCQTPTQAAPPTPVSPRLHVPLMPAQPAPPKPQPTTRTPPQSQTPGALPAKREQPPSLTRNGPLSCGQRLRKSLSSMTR
Coagulation factor XII (Homo sapiens), sequence (P00748 373-615 limits assumed): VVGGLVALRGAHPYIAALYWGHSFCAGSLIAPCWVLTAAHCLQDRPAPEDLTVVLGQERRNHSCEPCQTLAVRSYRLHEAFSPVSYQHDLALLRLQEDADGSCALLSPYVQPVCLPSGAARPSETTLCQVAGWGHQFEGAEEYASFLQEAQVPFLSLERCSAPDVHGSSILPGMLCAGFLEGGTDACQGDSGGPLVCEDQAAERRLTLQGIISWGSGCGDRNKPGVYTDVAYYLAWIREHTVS

| IC50 [µM] | Compound |
| --- | --- |
| 6.22 | O=C(Oc1ccc2c3c(c(=O)oc2c1)CCC3)c1ccco1 |
| 0.796 | Cc1ccc(C(=O)n2nc(-c3cccnc3)nc2N)cc1 |
| 21.6 | O=C(Oc1ccc(Cl)c2cccnc12)c1ccco1 |
